In patent US20240374563A1, “ANTICHOLINERGIC COMPOUNDS FOR USE IN TREATING NEUROMUSCULAR DISORDERS” (UNIVERSITY OF MONTRÉAL, priority 2022, published 2024) one finds body weight loss data, which are given here for one compound.

The test system of the assay is SOD1^G37R mice. As to the kind of experiment: Body weight loss. Conditions: at P520; treatment from disease onset; N=21. Format: in vivo, mouse. An excerpt: To this end, we monitored the changes in the body weight of the animals, a metric that is directly related to the progression of the disease and survival whereby animals present an important gradual body weight loss after symptoms onset.
The pre-clinial trial design was made according to guidelines for preclinical animal research in ALS/MND [35]. Male mice from the SOD1^G37R background and their WT littermates were included in the preclinical study. Mice were randomly assigned to the experimental or the placebo group. Treatment, behavior monitoring, experiments and results analysis were done blindly. Standard ALS behavioral measurements were performed biweekly to measure disease progression in the various study groups. This includes rotarod test. grip strength measurements, weight measurements and tail suspension test to assess hindlimb extension reflex.

The structures appear in SMILES notation.

For the compound `NC(=O)C(c1ccccc1)(c1ccccc1)[C@@H]1CCN(CCc2ccc3c(c2)CCO3)C1` [darifenacin], the body weight loss came to 20.0±1.9%.
